The values below come from patent US20200239530A1, “COMPOUNDS AND METHODS OF MODULATING PROTEIN DEGRADATION” (Vividion Therapeutics, Inc., priority 2017, published 2020).

Experiment [1] deals with T1, FBXO30 F-box only protein 30 (Homo sapiens, UniProt Q8TB52).
T1 construct: Cells were resuspended in cold PBS on ice and sonicated with a probe sonicator to achieve lysis; endogenous in cells
T1 sequence (Q8TB52 1-745): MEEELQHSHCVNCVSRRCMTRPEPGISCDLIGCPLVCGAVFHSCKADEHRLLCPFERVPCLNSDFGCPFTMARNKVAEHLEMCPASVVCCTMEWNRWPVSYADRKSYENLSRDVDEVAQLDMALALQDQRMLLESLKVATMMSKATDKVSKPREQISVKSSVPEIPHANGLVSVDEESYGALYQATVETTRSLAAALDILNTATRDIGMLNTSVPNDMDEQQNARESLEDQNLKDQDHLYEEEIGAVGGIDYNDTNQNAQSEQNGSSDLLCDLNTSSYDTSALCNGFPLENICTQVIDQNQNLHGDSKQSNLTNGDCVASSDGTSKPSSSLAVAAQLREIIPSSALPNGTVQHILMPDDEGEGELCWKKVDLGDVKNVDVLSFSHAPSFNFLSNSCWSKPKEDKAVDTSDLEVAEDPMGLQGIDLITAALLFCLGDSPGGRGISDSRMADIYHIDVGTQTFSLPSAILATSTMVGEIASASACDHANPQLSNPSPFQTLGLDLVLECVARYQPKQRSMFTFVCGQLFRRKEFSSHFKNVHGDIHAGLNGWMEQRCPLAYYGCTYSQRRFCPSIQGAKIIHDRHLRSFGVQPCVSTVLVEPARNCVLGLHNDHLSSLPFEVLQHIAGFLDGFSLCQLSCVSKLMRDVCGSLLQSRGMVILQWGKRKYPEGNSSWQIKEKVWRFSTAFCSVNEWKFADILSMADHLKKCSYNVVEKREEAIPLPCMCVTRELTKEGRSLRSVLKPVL
The experiment can be described thus: Cysteine liganding, probe competition. Format: binding. The procedure, abridged:
(§1)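 Lysates from probe-sonicated cells in PBS (5 mg/ml proteome) were exposed to compound for 1 hr at 25° C, then labelled with desthiobiotin iodoacetamide probe (10 mM stock) for 1 hr at 25° C. Probe-tagged peptides were streptavidin-enriched after trypsin digestion.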

The next experiment has as its target T2, HMOX2 Heme oxygenase 2 (Homo sapiens, UniProt P30519).
T2 construct: Cells were resuspended in cold PBS on ice and sonicated with a probe sonicator to achieve lysis; endogenous in cells
T2 sequence (P30519 1-316): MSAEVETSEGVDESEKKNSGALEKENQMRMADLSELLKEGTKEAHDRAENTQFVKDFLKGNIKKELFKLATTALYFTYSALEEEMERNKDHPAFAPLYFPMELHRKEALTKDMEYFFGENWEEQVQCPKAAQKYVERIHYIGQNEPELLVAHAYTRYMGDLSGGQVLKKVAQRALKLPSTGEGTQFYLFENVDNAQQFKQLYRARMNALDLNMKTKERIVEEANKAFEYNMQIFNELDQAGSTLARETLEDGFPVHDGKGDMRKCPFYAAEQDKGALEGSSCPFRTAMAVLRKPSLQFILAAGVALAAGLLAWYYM
The experiment can be described thus: Cysteine liganding, probe competition. The class given is binding. Particulars: for Liganded: HMOX2 Res# 265, uniprot P30519. The procedure, abridged: as §1

As to `COc1ccc2c(c1)CCCN2C(=O)CCl` [KB02], the Liganded entry is on record as “YES” in experiment [1] (FBXO30 Res# 725, uniprot Q8TB52) and “YES” at HMOX2 Heme oxygenase 2.

Turning to `O=C(CCl)Nc1cc(C(F)(F)F)cc(C(F)(F)F)c1` [KBO3], in experiment [1] (uniprot Q8TB52), the “100 Max” value came to 10.4, the 100 ave amounted to 4.3 and the 500 ave is 25.0. The 500 Max in experiment [1] (uniprot Q8TB52, unit assumed) worked out at 39.5%. For the same compound, the Liganded entry on HMOX2 Heme oxygenase 2 is recorded as “YES”. For the same compound, on HMOX2 Heme oxygenase 2 (uniprot P30519), the “100 Max” value amounted to 93.81, the 100 ave came to 81.435 and the 500 ave worked out at 88.6. In addition, at HMOX2 Heme oxygenase 2 (uniprot P30519, in % (unit assumed)), the “500 Max” value is reported as 98.54.
